Laboratory results as given in patent US20240299438A1, “METHOD FOR DIAGNOSIS AND TREATMENT OF AUTISM SPECTRUM DISORDER ON BASIS OF ACTIVITY REGULATION MECHANISM OF DORMANT NEURAL STEM CELL” (DONGGUK UNIVERSITY INDUSTRY-ACADEMIC COOPERATION FOUNDATION, priority 2021, published 2024).

How the values were obtained:
[1] = test system: quiescent neural stem cells in SVZ and DG of Shank3-deficient mice; experiment: Immunostaining quantification of qNSCs, BrdU+ NSCs and DCX+ cells after drug injection; type: in vivo, mouse; details: for number of GFAP+,Sox2+,Dlx2− qNSCs / number of GFAP+,Sox2+,Id2+ qNSCs: 2 weeks after administration, OICR-9429 3 mg/kg, romidepsin 0.25 mg/kg, clozapine 5 mg/kg, once/day, 3 days
Method: (§1) FIG. 5 (A) Immunostaining results of quiescent neural stem cells in the SVZ of control and Shank3 KO mice injected with saline, OICR-9429 (3 mg/kg, once/day, 3 days), romidepsin (0.25 mg/kg, once/day, 3 days), and clozapine (5 mg/kg, once/day, 3 days). The yellow arrows indicate GFAP+Sox2+Dlx2− qNSCs. Scale bar=20 μm. (B) Immunostaining results of quiescent neural stem cells in the DG of control and Shank3 KO mice injected with saline, OICR-9429 (3 mg/kg, once/day, 3 days), romidepsin (0.25 mg/kg, once/day, 3 days), and clozapine (5 mg/kg, once/day, 3 days). The yellow arrows indicate GFAP+Sox2+NeuN− qNSCs. Scale bar=20 μm. (C-E) Quantification results of FAP+Sox2+Id2+ (C) and GFAP+Sox2+Dlx2− (D) qNSCs in the SVZ and GFAP+Sox2+NeuN− (E) qNSCs in the DG. (F) Quantification results of BrdU+ NSCs in the SVZ injected with saline, OICR-9429, romidepsin, and clozapine. Control and Shank3 KO mice injected with each drug were injected intraperitoneally with a daily dose of BrdU (100 mg/kg/day). (G) Quantification results of DCX+ NPCs in the DG of control and Shank3 KO mice injected with each drug. (H) Immunofluorescence analysis of GFAP+,Sox2+,BrdU+ aNSCs in the SVZ of control and Shank3 KO mice injected with each drug. Scale bar=100 μm. (I) Quantification results of BrdU+ cells in the SVZ of saline- or OICR-9429-treated control and Shank3 mice at different time points after TMZ injection. (J) Analysis of protein expression levels of synaptic proteins and glutamate receptor subunits from control or Shank3 KO mice injected with saline or OICR-9429. (K) Results of representative heat maps showing the time spent in 3 chambers to assess the social interactions of control and Shank3 KO mice treated with saline, OICR-9429, romidepsin, clozapine, and VPA. (L-O) Social preference index percentages (Soc vs. NS ratio) in Shank3 KO mice injected with OICR-9429 (L), romidepsin (M), clozapine (N), and VPA (O) for 28 days.
To provide a drug-based therapeutic strategy for autism, Shank3-deficient mice were treated with OICR-9429, which is an antagonist inhibiting H3K4 trimethylation by KMT2A, and the effect was investigated. […] Similarly, OICR-9429 injection reduced the number of GFAP+,Sox2+,NeuN− qNSCs during hippocampal neurogenesis in Shank3-deficient mice (FIGS. 5B and 5E). […] Finally, as a result of treatment with OICR-9429, the number of DCX-positive neuroblasts increased in the brains of Shank3-deficient mice (FIG. 5G).

[2] = test system: Shank3-deficient mice; experiment: Social interaction behavioral test (3 chambers) after drug injection; type: in vivo, mouse; details: for time participating in social stimuli: 3-chamber test; for social preference index (persistence of effect): followed for 28 days after injection
Method: as §1
In addition, to investigate the therapeutic effect of OICR-9429, a social interaction behavioral test was performed on Shank3-deficient mice injected with various neuropsychiatric drugs.

[3] = test system: Homer1, SAPAP3, GluR1, GluR2, NR2A, NR2B; experiment: Protein expression levels of synaptic proteins and glutamate receptor subunits in mice; type: in vivo, mouse; details: Shank3-deficient mice
Method: as §1, with “(J) Analysis of protein expression levels of synaptic proteins and glutamate receptor subunits from control or Shank3 KO mice injected with saline or OICR-9429. (K) Results of representative heat maps showing the time spent in 3 chambers to assess the social interactions of control and Shank3 KO mice treated with saline, OICR-9429, romidepsin, clozapine, and VPA. (L-O) Social preference index percentages (Soc vs. NS ratio) in Shank3 KO mice injected with OICR-9429 (L), romidepsin (M), clozapine (N), and VPA (O) for 28 days.” left out

[4] = test system: qNSC activity in SVZ of Shank3-deficient mice; experiment: Recovery of BrdU-positive cells after temozolomide (TMZ) injection; type: in vivo, mouse; details: after 7 days of TMZ injection, relative to control mice
Method: as §1, with “(J) Analysis of protein expression levels of synaptic proteins and glutamate receptor subunits from control or Shank3 KO mice injected with saline or OICR-9429. (K) Results of representative heat maps showing the time spent in 3 chambers to assess the social interactions of control and Shank3 KO mice treated with saline, OICR-9429, romidepsin, clozapine, and VPA. (L-O) Social preference index percentages (Soc vs. NS ratio) in Shank3 KO mice injected with OICR-9429 (L), romidepsin (M), clozapine (N), and VPA (O) for 28 days.” left out

[5] = test system: HOMER1, SAPAP3, GluR1, NR2A; experiment: Western blot of synaptic proteins and glutamate receptor subunits in SHANK3-deficient human cultures; type: cell-based
[6] = test system: SHANK3-deficient human radial glia cells; experiment: Immunofluorescence of SHANK3-deficient human iPSC-derived neural stem (radial glia) cells; type: cell-based; details: five days after treatment
Text: FIG. 6 (A) Immunostaining results of GFAP+,SOX2+,ID2+ and GFAP+,SOX2+,NESTIN+ quiescent neural stem cells (radical glia cell, RGCs) from control or SHANK3-deficient iPSCs. White arrows indicate human RGCs. Scale bar=20 μm. (B) Quantification results of GFAP+,SOX2+,I D2+ RGCs with radial morphology. (C) Quantification results of GFAP+,SOX2+,NESTIN+ RGCs with radial morphology. (D) Immunostaining of GFAP+,SOX2+,EGFR+ aNSC and K167+ proliferating cells. Scale bar=20 μm. (E) Quantification results of GFAP+,SOX2+,EGFR+ aNSCs from control or SHANK3-deficient RGCs. (F) Quantification results of K167+ proliferating cells from control or SHANK3-deficient RGCs. (G) Immunofluorescence analysis of GFAP+,SOX2+,NESTIN+ RGCs from control or SHANK3-deficient NSCs treated with KMT2A-shRNA. The white arrow indicates cells with radial morphology. Scale bar=20 μm. (H) Quantification results of the number of GFAP+,SOX2+,NESTIN+ RGCs with radial morphology and GFAP+,SOX2+,NESTIN+ RGCs with nonradial morphology treated with KMT2A-shRNA. […]
The molecular mechanisms underlying the autism phenotypes associated with SHANK3 deficiency in human iPSC-derived neural differentiation were investigated. […] Additionally, it was analyzed whether or not SHANK3-deficient human radial glia cells are pharmacologically treated by OICR-9429.

| Structure (SMILES) | number of rapidly dividing cells labeled with BrdU ([1]; SVZ, Shank3-deficient mice) | number of GFAP+,Sox2+,Dlx2− qNSCs ([1]; SVZ, Shank3-deficient mice) | number of GFAP+,Sox2+,Id2+ qNSCs ([1]; SVZ, Shank3-deficient mice) | number of DCX-positive neuroblasts ([1]; brains (DG) of Shank3-deficient mice) | number of GFAP+,Sox2+,NeuN− qNSCs ([1]; hippocampal neurogenesis (DG), Shank3-deficient mice) | time participating in social stimuli [2] | social preference index (persistence of effect) [2] | expression of synaptic proteins Homer1 and SAPAP3 and glutamate receptor subunits GluR1, GluR2, NR2A, and NR2B [3] | BrdU-positive cells after TMZ injection [4] | expression levels of synaptic proteins HOMER1 and SAPAP3 and glutamate receptor subunits GluR1 and NR2A [5] | proportion of GFAP+,SOX2+,NESTIN+ radial glia cells with non-radial morphology ([6]; SHANK3-deficient neural stem cells) | proportion of GFAP+,SOX2+,NESTIN+ radial glia cells with radial morphology ([6]; SHANK3-deficient radial glia cells) |
| --- | --- | --- | --- | --- | --- | --- | --- | --- | --- | --- | --- | --- |
| CN1CCN(c2ccc(-c3cccc(CN4CCOCC4)c3)cc2NC(=O)c2c[nH]c(=O)cc2C(F)(F)F)CC1 [OICR-9429] | greatly increased | significantly decreased | significantly decreased | increased | reduced | significantly more time | gradually improved up to 3 weeks after injection | significantly restored | significantly recovered | greatly increased | significant decrease | decreased |
| CCCC(CCC)C(=O)O [VPA] |  |  |  |  |  | no significant effect | did not improve |  |  |  |  |  |
| CN1CCN(C2=Nc3cc(Cl)ccc3Nc3ccccc32)CC1 [clozapine] |  | no effect | no effect |  |  | no significant effect |  |  |  |  |  |  |
| C/C=C1\NC(=O)[C@H]2CSSCC/C=C/[C@H](CC(=O)N[C@H](C(C)C)C(=O)N2)OC(=O)[C@H](C(C)C)NC1=O [romidepsin] |  | no effect | no effect |  |  | no significant effect |  |  |  |  |  |  |
